Experimental findings from US9040727B2, “Histone deacetylase inhibitor of benzamides and use thereof” (Shanghai Institute of Pharmaceutical Industry, priority 2011, dated 2015) are described below.

One test concerns the target HDAC1 (Homo sapiens (Human), UniProt Q13547). Nature of the test: In vitro inhibitory activity towards HDAC1 (HDAC Inhibitor Drug Screening Kit). Format: biochemical. The following applies: for inhibition at 1 µM: compound at 1 μM; for inhibition at 10 µM: compound at 10 μM; for inhibitory activity against HDAC1 compared with MS-275 (by IC50): comparison with MS-275. On the procedure:
(1) The compounds to be tested were each individually prepared as 10 μM and 1 μM solutions and their inhibitory activities towards HDAC1 at these concentrations were tested.
(§1) Each dilution sample was placed in two wells and the enzyme inhibition IC50 of the compound was tested.

A further test has as its system HDACs. Nature of the test: In vitro inhibition of HDACs (HDAC Inhibitor Drug Screening Kit). The format is biochemical. The conditions noted are these: for inhibitory activity on HDACs compared with MS-275 (by IC50): comparison with MS-275. The method, then:
The test was conducted according to the instructions in the HDAC Inhibitor Drug Screening Kit (Biovision/Catalog #50051, BPS).
as §1

Test [1] relates to Hep3B2.1-7 human liver cancer cells. The experiment in a line: In vitro anti-proliferative effect, CCK-8 method. Format: cell-based. The following applies: Homo sapiens, Hep3B. On the procedure:
(§2) The inhibitory activities of the compounds towards Hut78 T lymphocytic leukemia cells, Jurkat E6-1 human T-cell lymphoma, A549 human lung cancer cells, K562 human chronic myelogenous leukemia cells, Hep3B2.1-7 human liver cancer cells, MDA-MB-435s human breast cancer cells, Colo320 human rectal cancer cell line, and PC-3 human prostate cancer were determined. The inhibition percentages as represented by IC50 values were obtained through CCK-8 method.
For orientation: Tetrazolium assays rely on reduction of a dye to a coloured formazan, in cell work by metabolically active cells.

In test [2] the test system is PC-3 human prostate cancer. Nature of the test: In vitro anti-proliferative effect, CCK-8 method. The format is cell-based. The conditions noted are these: Homo sapiens. The method, then: as §2
Test [3] deals with Jurkat E6-1 human T-cell lymphoma. Nature of the test: In vitro anti-proliferative effect, CCK-8 method. The format is cell-based. The conditions noted are these: Homo sapiens. The method, then: as §2
Test [4] deals with Colo320 human rectal cancer cell line. Nature of the test: In vitro anti-proliferative effect, CCK-8 method. The format is cell-based. The conditions noted are these: Homo sapiens, COLO 320. On the procedure:
as §2

For test [5], the system named is Hut78 T lymphocytic leukemia cells. Nature of the test: In vitro anti-proliferative effect, CCK-8 method. Format: cell-based. The conditions noted are these: Homo sapiens, HuT78. On the procedure: as §2
In test [6] the test system is K562 human chronic myelogenous leukemia cells. Nature of the test: In vitro anti-proliferative effect, CCK-8 method. Format: cell-based. On the procedure: as §2
For test [7], the system named is multiple strains of tumor cells. Nature of the test: In vitro inhibition of proliferation of tumor cell strains (overall comparison). Format: cell-based. The following applies: comparison with MS-275. On the procedure: as §2
In test [8] the test system is A549 human lung cancer cells. The experiment in a line: In vitro anti-proliferative effect, CCK-8 method. The format is cell-based. The following applies: Homo sapiens. On the procedure: as §2

Chain of HDAC1 (Q13547 whole entry): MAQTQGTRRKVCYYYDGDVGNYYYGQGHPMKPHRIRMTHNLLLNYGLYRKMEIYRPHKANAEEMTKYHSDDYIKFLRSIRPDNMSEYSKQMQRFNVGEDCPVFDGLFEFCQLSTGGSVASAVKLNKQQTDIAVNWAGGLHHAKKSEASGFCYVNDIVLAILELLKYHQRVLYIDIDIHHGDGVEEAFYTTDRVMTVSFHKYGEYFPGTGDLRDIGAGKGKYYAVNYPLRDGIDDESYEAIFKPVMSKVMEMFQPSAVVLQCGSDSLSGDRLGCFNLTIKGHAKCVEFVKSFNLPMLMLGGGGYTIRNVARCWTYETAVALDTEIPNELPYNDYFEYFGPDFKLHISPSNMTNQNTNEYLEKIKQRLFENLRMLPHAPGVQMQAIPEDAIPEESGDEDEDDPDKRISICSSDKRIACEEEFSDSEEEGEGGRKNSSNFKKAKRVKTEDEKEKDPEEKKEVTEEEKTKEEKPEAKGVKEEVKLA

By inhibition is commonly meant the relative decrease from the control value, in per cent. Higher therefore signals strong suppression. As for `CNc1ccc2[nH]c(C(=O)NCc3ccc(C(=O)Nc4ccccc4N)cc3)cc2c1` [Compound V-22], at HDAC1, the inhibition at 1 µM was determined as 36.8% and the inhibition at 10 µM turned out to be 59.5%.
On HDAC1, `Nc1ccccc1NC(=O)c1ccc(CNC(=O)c2cc3ccccc3o2)cc1` [Compound V-8] had an inhibition at 1 µM of 62.2% and an inhibition at 10 µM of 79.5%.
One may read the IC50 as the concentration at which inhibition is half-maximal. At HDAC1, `Nc1ccc2[nH]c(C(=O)NCc3ccc(C(=O)Nc4ccccc4N)cc3)cc2c1` [Compound V-23] yielded an IC50 of 998 nM, an inhibition at 1 µM of 67.1% and an inhibition at 10 µM of 78.8%. For the same compound, inhibition in the test on HDACs was half-maximal at 6890 nM (IC50).
As for `Nc1ccccc1NC(=O)c1ccc(CNC(=O)c2cccc3ccccc23)cc1` [Compound V-15], the IC50 was 2760 nM in test [1]; 2630 nM in [2]; 1370 nM in test [3]; 9340 nM in test [4]; 2780 nM in test [5]; 2880 nM in [6]. On HDAC1, the “inhibitory activity against HDAC1 compared with MS-275 (by IC50)” value was “better inhibitory activities against HDAC1 as compared with MS-275”. On HDAC1, this compound came in with an inhibition at 1 µM of 29.8%. Also, at HDAC1, the inhibition at 10 µM came to 67.5%. In the test on HDACs, the “inhibitory activity on HDACs compared with MS-275 (by IC50)” value was “better inhibitory activities than MS-275”.
For the compound `Nc1ccc(F)cc1NC(=O)c1ccc(CNC(=O)c2nc3ccccc3[nH]2)cc1` [Compound V-13], at HDAC1, at 1 µM the inhibition was 13.4% and 10 µM produced 23.9% inhibition.
For `CC(=O)Nc1ccc2[nH]c(C(=O)NCc3ccc(C(=O)Nc4ccccc4N)cc3)cc2c1` [Compound V-25], the “inhibition rate for tumor cells compared with MS-275” value in test [7] is on record as “higher inhibition rate for multiple strains of tumor cells as compared with MS-275”. Also, the IC50 in test [8] worked out at 295 nM; in test [2] it was 69 nM; in test [5], 877 nM; against HDAC1, 301 nM; in the test with HDACs it was 1020 nM. The “inhibitory activity against HDAC1 compared with MS-275 (by IC50)” value against HDAC1 is listed as “better inhibitory activities against HDAC1 as compared with MS-275”. Further, the inhibition at 1 µM on HDAC1 turned out to be 53.9%. Moreover, on HDAC1, the inhibition at 10 µM is 76.2%.
As for `Nc1cnccc1NC(=O)c1ccc(CNC(=O)c2cc3ccccc3[nH]2)cc1` [Compound V-6], the “inhibition rate for tumor cells compared with MS-275” value in test [7] is reported as “higher inhibition rate for multiple strains of tumor cells as compared with MS-275”. Besides, the IC50 turned out to be 1250 nM in test [8]; 3070 nM in [1]; 370 nM in test [2]; 128 nM in test [3]; 3130 nM in test [4]; 8.8 nM in test [5]. The IC50 in test [6] turned out to be 2090 nM; on HDAC1, 344 nM; in the test on HDACs it was 7790 nM. Moreover, the “inhibitory activity against HDAC1 compared with MS-275 (by IC50)” value against HDAC1 is reported as “better inhibitory activities against HDAC1 as compared with MS-275”. Besides, on HDAC1, the inhibition at 1 µM came out at 68.5%. For the same compound, at 10 µM the inhibition at HDAC1 was 74.5%.
At HDAC1, `Nc1ccccc1NC(=O)c1ccc(CNC(=O)c2nc3ccccc3[nH]2)cc1` [Compound V-12] gave an inhibition at 1 µM of 8.7% and an inhibition at 10 µM of 28.4%.
The matching figures for `Nc1ccc(-c2ccccc2)cc1NC(=O)c1ccc(CNC(=O)c2cc3ccccc3o2)cc1` [Compound V-11]: 38.1% and 58.5%.
On HDAC1, `COc1ccc2cc(C(=O)NCc3ccc(C(=O)Nc4cc(F)ccc4N)cc3)ccc2c1` [Compound V-4] gave an inhibition at 1 µM of 24.7% and an inhibition at 10 µM of 44.8%.
Consider `Nc1ccccc1NC(=O)c1ccc(CNC(=O)c2cc3cc(C(F)(F)F)ccc3[nH]2)cc1` [Compound V-20], for which, on HDAC1, the inhibition at 1 µM came to 39.4% and 10 µM produced 72.2% inhibition.
The corresponding values for `Nc1ccccc1NC(=O)c1ccc(CNC(=O)c2ccc3ccccc3c2)cc1` [Compound V-1] are 4.49% and 15.2%.
At HDAC1, `Nc1ccccc1NC(=O)c1ccc(CNC(=O)c2cc3cc(F)ccc3[nH]2)cc1` [Compound V-18] showed an inhibition at 1 µM of 22.1% and an inhibition at 10 µM of 49.5%.
Turning to `Cc1ccc2[nH]c(C(=O)NCc3ccc(C(=O)Nc4ccccc4N)cc3)cc2c1` [Compound V-19], the “inhibition rate for tumor cells compared with MS-275” value in test [7] is recorded as “higher inhibition rate for multiple strains of tumor cells as compared with MS-275”. The IC50 in test [1] is 10200 nM; in test [2], 191 nM; in [5], 1190 nM; in [6], 1910 nM; on HDAC1, 414 nM; with HDACs it was 1140 nM. Besides, the “inhibitory activity against HDAC1 compared with MS-275 (by IC50)” value on HDAC1 is “better inhibitory activities against HDAC1 as compared with MS-275”. The compound also had an inhibition at 1 µM on HDAC1 of 73.1%. The inhibition at 10 µM against HDAC1 worked out at 84%. For the same compound, the “inhibitory activity on HDACs compared with MS-275 (by IC50)” value with HDACs is on record as “better inhibitory activities than MS-275”.
At HDAC1, `COc1c(C(=O)NCc2ccc(C(=O)Nc3ccccc3N)cc2)oc2ccccc12` [Compound V-21] yielded an IC50 of 758 nM, an inhibition at 1 µM of 34.4% and an inhibition at 10 µM of 68.8%. Half-maximal inhibition with HDACs (IC50) was put at 9400 nM.
For `Nc1ccc(F)cc1NC(=O)c1ccc(CNC(=O)c2cc3ccccc3[nH]2)cc1` [Compound V-7], on HDAC1, the inhibition at 1 µM was found to be 41.4% and the inhibition at 10 µM is 53.3%.
Take `COc1ccc2cc(C(=O)NCc3ccc(C(=O)Nc4ccccc4N)cc3)ccc2c1` [Compound V-3]: at HDAC1, testing at 1 µM gave an inhibition of 33.3% and at 10 µM the inhibition was 60%.
`Nc1cnccc1NC(=O)c1ccc(CNC(=O)c2cc3ccccc3s2)cc1` [Compound V-28]: at HDAC1, the IC50 was 731 nM, the inhibition at 1 µM was 53.5% and 10 µM produced 77.4% inhibition. This compound also displayed an IC50 in the test on HDACs of 1310 nM.
On to `Nc1ccc(F)cc1NC(=O)c1ccc(CNC(=O)c2ccc3ccccc3c2)cc1` [Compound V-2], for which, at HDAC1, 1 µM produced 28.8% inhibition and 10 µM produced 46.9% inhibition.
As for `Nc1ccc(-c2cccs2)cc1NC(=O)c1ccc(CNC(=O)c2cc3ccccc3o2)cc1` [Compound V-10], at HDAC1, 1 µM produced 58.9% inhibition and the inhibition at 10 µM turned out to be 75.4%.
On to `Nc1cnccc1NC(=O)c1ccc(CNC(=O)c2cccc3ccccc23)cc1` [Compound V-16], for which the half-inhibitory concentration (IC50) in test [1] was 3360 nM; in test [4], 86000 nM; in [5], 1790 nM; in [6], 6080 nM; against HDAC1, 276 nM; in the test on HDACs, 3110 nM. The “inhibitory activity against HDAC1 compared with MS-275 (by IC50)” value on HDAC1 is “better inhibitory activities against HDAC1 as compared with MS-275”. In addition, 1 µM produced 62.5% inhibition on HDAC1. The same compound gave an inhibition at 10 µM against HDAC1 of 85.1%. In addition, in the test on HDACs, the “inhibitory activity on HDACs compared with MS-275 (by IC50)” value was “better inhibitory activities than MS-275”.
On to `Nc1ccc(-c2ccco2)cc1NC(=O)c1ccc(CNC(=O)c2nc3ccccc3[nH]2)cc1` [Compound V-14], for which the IC50 in [8] came to 3140 nM; in test [1], 1520 nM; in test [3], 458 nM; in test [5], 356 nM; in [6] it was 437 nM. The “inhibitory activity against HDAC1 compared with MS-275 (by IC50)” value against HDAC1 was “better inhibitory activities against HDAC1 as compared with MS-275”. Also, at HDAC1, the inhibition at 1 µM was 74.8%. This compound gave an inhibition at 10 µM against HDAC1 of 87.2%.
At HDAC1, `Nc1ccc(F)cc1NC(=O)c1ccc(CNC(=O)c2cccc3ccccc23)cc1` [Compound V-17] displayed an IC50 of 735 nM, an inhibition at 1 µM of 54% and an inhibition at 10 µM of 76.2%. For the same compound, in the test with HDACs, the IC50 came out at 920 nM and the “inhibitory activity on HDACs compared with MS-275 (by IC50)” value is reported as “better inhibitory activities than MS-275”.
As for `CC(=O)c1ccc2[nH]c(C(=O)NCc3ccc(C(=O)Nc4ccccc4N)cc3)cc2c1` [Compound V-26], the IC50 in [8] amounted to 29900 nM; in test [1], 52200 nM; in [2] it was 12200 nM; in test [3] it was 12400 nM; in test [4], 88400 nM; in test [5], 231 nM. The IC50 in [6] turned out to be 19900 nM; against HDAC1, 509 nM; in the test on HDACs it was 1370 nM. The “inhibitory activity against HDAC1 compared with MS-275 (by IC50)” value on HDAC1 was “better inhibitory activities against HDAC1 as compared with MS-275”. Moreover, at HDAC1, the inhibition at 1 µM was 59.3%. The same compound returned an inhibition at 10 µM against HDAC1 of 70.8%.
At HDAC1, `Nc1ccccc1NC(=O)c1ccc(CNC(=O)c2cc3ccccc3s2)cc1` [Compound V-24] displayed an IC50 of 1580 nM, an inhibition at 1 µM of 59.1% and an inhibition at 10 µM of 67.4%. In addition, in the test with HDACs, half-maximal inhibition (IC50) required 1720 nM and the “inhibitory activity on HDACs compared with MS-275 (by IC50)” value is reported as “better inhibitory activities than MS-275”.
